The results in this text go back to ChEMBL document CHEMBL1136991, “Novel potent BRAF inhibitors: toward 1 nM compounds through optimization of the central phenyl ring” (J Med Chem, 2009).

SMILES strings stand for the structures.

The target of assay [1] is MAP kinase-activated protein kinase 2 (Homo sapiens) (UniProt P49137). The assay can be described thus: Inhibition of MAPKAP-K2 at 1 uM relative to control.
The target in assay [2] is T1, Inhibitor of nuclear factor kappa-B kinase subunit beta (Homo sapiens) (UniProt O14920).
T1 sequence (whole entry): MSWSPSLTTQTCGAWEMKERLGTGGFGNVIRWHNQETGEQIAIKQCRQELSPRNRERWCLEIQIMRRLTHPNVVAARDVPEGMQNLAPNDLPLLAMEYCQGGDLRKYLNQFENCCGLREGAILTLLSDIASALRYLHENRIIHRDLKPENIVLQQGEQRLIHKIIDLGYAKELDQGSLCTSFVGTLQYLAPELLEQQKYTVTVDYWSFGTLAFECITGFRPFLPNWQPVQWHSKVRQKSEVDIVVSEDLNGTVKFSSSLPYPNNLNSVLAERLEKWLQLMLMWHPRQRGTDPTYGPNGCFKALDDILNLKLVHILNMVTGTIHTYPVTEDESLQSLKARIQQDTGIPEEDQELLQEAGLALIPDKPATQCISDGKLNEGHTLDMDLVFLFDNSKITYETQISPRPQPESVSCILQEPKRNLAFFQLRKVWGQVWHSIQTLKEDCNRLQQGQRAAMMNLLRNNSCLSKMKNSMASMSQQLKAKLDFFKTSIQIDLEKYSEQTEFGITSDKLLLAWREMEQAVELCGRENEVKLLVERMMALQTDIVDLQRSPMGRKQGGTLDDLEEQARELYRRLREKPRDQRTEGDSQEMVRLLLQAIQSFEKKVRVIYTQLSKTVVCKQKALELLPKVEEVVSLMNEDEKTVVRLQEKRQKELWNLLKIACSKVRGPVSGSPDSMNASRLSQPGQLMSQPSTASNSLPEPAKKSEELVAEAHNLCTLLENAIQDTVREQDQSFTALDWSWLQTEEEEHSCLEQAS
The assay can be described thus: Inhibition of IKK-beta at 1 uM relative to control.

Assay [3] deals with T2, Serine/threonine-protein kinase Chk1 (Homo sapiens) (UniProt O14757).
T2 sequence (whole entry): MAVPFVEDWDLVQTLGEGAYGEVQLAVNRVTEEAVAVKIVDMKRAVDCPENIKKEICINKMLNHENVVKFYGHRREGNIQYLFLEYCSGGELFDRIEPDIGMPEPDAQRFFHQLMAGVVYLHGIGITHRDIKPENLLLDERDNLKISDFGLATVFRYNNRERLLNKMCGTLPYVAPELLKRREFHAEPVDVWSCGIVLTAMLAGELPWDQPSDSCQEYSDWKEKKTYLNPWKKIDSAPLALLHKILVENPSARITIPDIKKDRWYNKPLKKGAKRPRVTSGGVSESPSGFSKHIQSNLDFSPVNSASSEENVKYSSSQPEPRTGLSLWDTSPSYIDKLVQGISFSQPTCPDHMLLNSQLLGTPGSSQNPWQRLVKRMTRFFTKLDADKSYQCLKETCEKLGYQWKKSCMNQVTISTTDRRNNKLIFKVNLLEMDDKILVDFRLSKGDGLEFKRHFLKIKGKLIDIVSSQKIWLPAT
The assay can be described thus: Inhibition of CHK1 at 1 uM relative to control.

Sequence of MAP kinase-activated protein kinase 2 (Homo sapiens) (P49137 whole entry, looked up): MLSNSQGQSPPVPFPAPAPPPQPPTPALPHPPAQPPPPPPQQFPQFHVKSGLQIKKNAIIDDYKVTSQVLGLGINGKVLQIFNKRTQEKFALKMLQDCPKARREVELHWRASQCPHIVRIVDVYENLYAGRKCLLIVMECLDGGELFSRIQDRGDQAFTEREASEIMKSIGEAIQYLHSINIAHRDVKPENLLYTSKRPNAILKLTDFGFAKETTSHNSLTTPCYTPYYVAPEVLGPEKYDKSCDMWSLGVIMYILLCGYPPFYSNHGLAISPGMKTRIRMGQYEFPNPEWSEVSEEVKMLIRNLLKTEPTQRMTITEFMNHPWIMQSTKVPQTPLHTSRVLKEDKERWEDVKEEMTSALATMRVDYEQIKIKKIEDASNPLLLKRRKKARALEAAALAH

On to `O=C(Nc1cc(C(F)(F)F)ccc1F)Nc1ccc(Oc2ccnc3[nH]c(=O)[nH]c23)c2ccccc12`, for which the residual activity in assay [1], in assay [2] and in assay [3] was 100% in each case.

As to `CC(C)(C)c1cccc(NC(=O)Nc2ccc(Oc3ccnc4[nH]c(=O)[nH]c34)c3ccccc23)c1`, the residual activity in assay [1], in assay [2] and in assay [3] was 75% throughout.

Take `CSc1cc(Oc2ccnc3[nH]c(=O)[nH]c23)ccc1NC(=O)Nc1cccc(C(F)(F)F)c1`: the residual activity in assay [1], in assay [2] and in assay [3] was 100% each time.
